Measured values reported in ChEMBL document CHEMBL3301361, “Experimental in vitro DMPK and physicochemical data on a set of publicly disclosed compounds”.
Values after ≈ are worked out from the molar mass of the structure shown.

Columns and labels:
in vitro [1] = settings: human
physchem [2] = settings: pH 7.4 buffer
physchem [3] = settings: octan-1-ol/water, pH 7.4, LogD7.4
in vitro [4] = settings: human, plasma

SMILES | microsomal CLint (in vitro [1]; liver microsomes) [µL/min/mg] | solubility thermodynamic (physchem [2]) [µM] | logD (physchem [3]) | microsomal CLint (in vitro [1]; microsomes) [µL/min/mg] | fraction unbound at 5 h (in vitro [4]) | fraction unbound at 5 h (in vitro [4]; PPB)
CN(C)CC(O)COc1ccc(Nc2ncc(Cl)c(Nc3ccccc3)n2)cc1 (stereo unspecified) | 5 | 38.9 (≈ 16.1 µg/mL) |  |  |  | 
Cc1ccc(F)c(Nc2ccnc(Nc3ccc(S(N)(=O)=O)cc3)n2)c1 | 18 | 4.4 (≈ 1.64 µg/mL) | 3.1 |  |  | 
N#Cc1c(-c2ccccc2)nc(SCc2ccccc2)[nH]c1=O |  |  | 1.56 | 6 |  | 
CCN(C(=O)NCc1c(F)cccc1F)C1CCN(CCC(c2ccccc2)c2ccccc2)CC1 | 6 | 24 (≈ 11.8 µg/mL) |  |  |  | 
O=c1[nH]c(-c2ccc([N+](=O)[O-])cc2)nc2ccccc12 |  | 1.9 (≈ 0.508 µg/mL) | 2.5 | 53.7 |  | 
CCCC1CCCCC(N)=N1 (stereo unspecified) | < 3 |  | 1.1 |  |  | 
CCCCCOc1ccc(C(=O)NC(C(=O)O)C(C)C)cc1 (stereo unspecified) | 5.5 |  |  |  | 0.0171 | 
Nc1nnc(-c2ccccc2)s1 | 3 |  | 1.8 |  |  | 
Cc1noc(C)c1-c1ccc(CNS(=O)(=O)c2c(C)noc2C)cc1 |  |  |  | 60.3 |  | 0.0752
CCc1ccc(OCC(=O)O)c(-c2ccc(S(C)(=O)=O)cc2)c1 |  |  |  | < 3 |  | 0.0568
CCS(=O)(=O)c1ccc(-c2cc(C(F)(F)F)ccc2O[C@@H](C)C(=O)O)c(C)c1 | < 3 |  |  |  |  | 0.0418
O=C(NCC1CCCCC1)c1cc(-n2ncc(=O)[nH]c2=O)ccc1Cl |  |  | 1.26 | 8.5 |  | 
CN(C(=O)Cc1ccc(F)cc1)C1CCN(CCC(c2ccccc2)c2ccccc2)CC1 | < 3 | 129 (≈ 57.3 µg/mL) |  |  |  | 
O=c1[nH]c2c(O)ccc([C@@H](O)CNCCCSCCNCCc3cccc(Cl)c3)c2s1 | 20 |  | 1.06 |  |  | 
O=c1[nH]c2c(O)ccc([C@@H](O)CNCCCSCCNCCc3cccc(Cl)c3Cl)c2s1 | 35 |  | 1.74 |  |  | 
CCN(C(=O)NCc1ccc(S(C)(=O)=O)cc1)C1CCN(CCC(c2ccccc2)c2ccccc2)CC1 | < 3 | 282 (≈ 150 µg/mL) | 2.86 |  |  | 
COc1ccc(CC(=O)N(C)C2CCN(CCC(c3ccccc3)c3ccccc3)CC2)cc1OC | 112 | 324 (≈ 157 µg/mL) | 3.4 |  |  | 

SMILES | microsomal CLint (in vitro [1]; liver microsomes) [µL/min/mg] | solubility thermodynamic (physchem [2]) [µM] | logD (physchem [3]) | microsomal CLint (in vitro [1]; microsomes) [µL/min/mg] | fraction unbound at 5 h (in vitro [4]) | fraction unbound at 5 h (in vitro [4]; PPB)
NC(=O)Nc1cc(-c2ccccc2)sc1C(N)=O | 27 | 17 (≈ 4.44 µg/mL) | 2.43 |  |  | 
CC(=O)Nc1ccc(CNc2[nH]nc3cccc(Oc4ccc(S(C)(=O)=O)cc4)c23)cc1 | 75 | 4.3 (≈ 1.94 µg/mL) | 2.63 |  |  | 
CSc1nccc(Nc2cc(NC(=O)c3cc(F)cc(N4CCOCC4)c3)ccc2C)n1 | 83 | 0.7 (≈ 0.317 µg/mL) |  |  |  | 
COc1ccc(OC)c(CNc2[nH]nc3cccc(Oc4ccc(S(C)(=O)=O)cc4)c23)c1 | 103 | 2.2 (≈ 0.998 µg/mL) | 3.71 |  |  | 
CC(=O)Nc1cccc2c1c(S(=O)(=O)c1ccc(Cl)cc1)c(C)n2CC(=O)O | < 3 |  |  |  |  | 0.0428
COc1ccccc1CNCCc1cccc(CCNC[C@H](O)c2ccc(O)c3[nH]c(=O)sc23)c1 | 56 |  | 0.91 |  |  | 
CCN(C(=O)Cc1ccc(S(C)(=O)=O)cc1)C1CCN(CC[C@@H](c2ccccc2)N2CCN(S(=O)(=O)C(F)(F)F)CC2)CC1 | 18 | 288 (≈ 190 µg/mL) |  |  |  | 
CCN(C(=O)Cc1ccc(S(C)(=O)=O)cc1)C1CCN(CC[C@@H](c2cc(F)cc(F)c2)N2CCN(S(C)(=O)=O)CC2)CC1 |  | 1260 (≈ 807 µg/mL) | 1.25 | 7.5 |  | 
CCN(C(=O)Cc1ccc(S(C)(=O)=O)cc1)C1CCN(CCC(c2ccccc2)c2ccc(C)cc2)CC1 (stereo unspecified) | 66 | 75.9 (≈ 40.4 µg/mL) |  |  |  | 
CCN(C(=O)Cc1ccc(S(C)(=O)=O)cc1)C1CCN(CCC(c2ccccc2)c2ccc(NS(C)(=O)=O)cc2)CC1 (stereo unspecified) | < 3 | 174 (≈ 106 µg/mL) | 1.84 |  |  | 
CCN(C(=O)Cc1ccc(S(C)(=O)=O)cc1)C1CCN(CCC(c2ccccc2)c2ccc(NC(C)=O)cc2)CC1 (stereo unspecified) | < 3 | 692 (≈ 398 µg/mL) | 2.09 |  |  | 
COc1ccccc1C(=O)Nc1ccc(C)c(-n2cnc3ccc(N4CCN(C)CC4)cc3c2=O)c1 | 7 | 75.9 (≈ 36.7 µg/mL) | 2.93 |  |  | 
COc1cccc(C(=O)Nc2ccc(C)c(-n3cnc4ccc(N5CCN(C)CC5)cc4c3=O)c2)c1 | 16 | 219 (≈ 106 µg/mL) | 3.08 |  |  | 
Cc1ccc(NC(=O)c2ccccc2F)cc1-n1cnc2ccc(N3CCN(C)CC3)cc2c1=O |  | 933 (≈ 440 µg/mL) | 2.75 | 3 |  | 
Cc1ccc(NC(=O)c2cncs2)cc1-n1cnc2ccc(N3CCN(C)CC3)cc2c1=O |  | 537 (≈ 247 µg/mL) | 2.11 | < 3 |  | 
Cc1ccc(C(=O)Nc2nccs2)cc1-n1cnc2ccc(N3CCN(C)CC3)cc2c1=O | 7 | 91.2 (≈ 42 µg/mL) | 2.56 |  |  | 
